Assay [1] has as its system CT26.WT KRas G12C E3 clone tumors. Briefly: Tumor volumes of CT26.WT KRas G12C E3 clone tumor bearing mice, single agents and combination. Type of assay: in vivo, BALBc mice. On the procedure: (§1) BALBc mice were inoculated in the right hind flank with 1×10^6 CT26.WT KRas G12C E3 cells harboring the KRas G12C mutation, and tumor volumes were measured using a caliper every two-three days and tumor volumes were calculated by the formula: […].
When tumor volumes reached between 200-400 mm^3 in size (Study Day 0), the mice were divided into four groups of 5 mice each. The first group was daily administered vehicle (10% Captisol in 50 mM citrate buffer pH 5.0) through Study Day 15 and also administered i.p. vehicle (BioXcel diluent) on Study Days 1, 4 and 7. The second group was […] a 10 mg/kg i.p. dose of the murine anti-PD-1 antibody (F26, BioXcel) at Days 1, 4 and 7.
At Study Day 39, four tumor-free mice from the combination group were rechallenged 1×10^6 CT26.WT KRas G12C E3 cells in the opposite left flank and mice were monitored for tumor growth for a period of twenty four days to determine whether a durable, adaptive immune response was observed.

Assay [2] shares this test system. In words: Repeat study: tumor volumes of CT26.WT KRas G12C E3 clone tumor bearing mice, 10 animals per group. Type of assay: in vivo, BALBc mice. The following applies: for Tumor volume: individual mice. The protocol: as §1
In the second study the number of treated mice was increased from 5 animals per group to 10 animals per group.
When tumor volumes reach between 200-400 mm^3 in size (Study Day 0), the mice were divided into four groups of 10 mice each. The first group was daily administered vehicle (10% Captisol in 50 mM citrate buffer pH 5.0) through Study Day 10 and also administered i.p. vehicle (BioXcel diluent) on Study Days 1, 4 and 7. The second group was daily administered a 10 mg/kg i.p. dose of the murine anti-PD-1 antibody (F26, BioXcel) at Days 1, 4 and 7.

The structures appear in SMILES notation. Values joined by “and” are separate entries in the source; they are usually repeats but may differ in a detail not shown here. Identical values can stand only once.

Turning to `C=C(F)C(=O)N1CCN(c2nc(OC[C@@H]3CCCN3C)nc3c2CCN(c2cccc4cccc(Cl)c24)C3)C[C@@H]1CC#N` [Example 478], the entries for the “mice achieving a complete response” value in assay [1] (5 mice per group) and in assay [2] (10 mice per group) were “all five treated mice achieving a complete response after nine days of administration” and “all ten treated mice achieving a complete response”, respectively. Further, the “tumor regrowth / time without a detectable tumor” value in assay [1] (Example 478 stopped at Study Day 29) is “eventually tumor growth was detected at the original site of implantation in all five mice”; in assay [2] (Example 478 stopped at Study Day 25), “eventually tumor growth was detected in 6 out of 9 mice at the original site of implantation”. Further, the Tumor volume in assay [2] (Study Day 14, original implantation site (R), Example 478 100 mg/kg, F26 10 mg/kg i.p., listed as Example 47) is 0 mm^3 (9×) and 4 mm^3; in assay [2] (Study Day 17, original implantation site (R), Example 478 100 mg/kg, F26 10 mg/kg i.p., listed as Example 47), 0 mm^3 (8×) and 32 mm^3; in assay [2] (Study Day 19, original implantation site (R), Example 478 100 mg/kg, F26 10 mg/kg i.p., listed as Example 47) it was 51 mm^3 and 0 mm^3 (5×) and 875 mm^3 and 32 mm^3 and 371 mm^3 and 63 mm^3; in assay [2] (Study Day 21, original implantation site (R), Example 478 100 mg/kg, F26 10 mg/kg i.p., listed as Example 47), 268 mm^3 and 0 mm^3 (5×) and 1320 mm^3 and 139 mm^3 and 762 mm^3 and 274 mm^3; in assay [2] (Study Day 24, original implantation site (R), Example 478 100 mg/kg, F26 10 mg/kg i.p., listed as Example 47), 877 mm^3 and 0 mm^3 (5×) and 2470 mm^3 and 588 mm^3 and 1498 mm^3 and 291 mm^3; in assay [2] (Study Day 26, original implantation site (R), Example 478 100 mg/kg, F26 10 mg/kg i.p., listed as Example 47), 1237 mm^3 and 0 mm^3 (4×) and 923 mm^3 and 1699 mm^3 and 14 mm^3. The Tumor volume in assay [2] (Study Day 28, original implantation site (R), Example 478 100 mg/kg, F26 10 mg/kg i.p., listed as Example 47) is 1371 mm^3 and 0 mm^3 (4×) and 1056 mm^3 and 2035 mm^3 and 14 mm^3; in assay [2] (Study Day 31, original implantation site (R), Example 478 100 mg/kg, F26 10 mg/kg i.p., listed as Example 47), 2334 mm^3 and 0R 0L mm^3 (4×) and 2113 mm^3 and 161 mm^3; in assay [2] (Study Day 31, site of re-challenge (L)), 0R 0L mm^3; in assay [2] (Study Day 33, original implantation site (R), Example 478 100 mg/kg, F26 10 mg/kg i.p., listed as Example 47), 0R 0L mm^3 and 289 mm^3 and 63 mm^3 and 32 mm^3 and 4 mm^3; in assay [2] (Study Day 33, site of re-challenge (L), listed as Example 47), 0R 0L mm^3 and 0 mm^3 (3×); in assay [2] (Study Day 38, original implantation site (R), Example 478 100 mg/kg, F26 10 mg/kg i.p., listed as Example 47) it was 0R 0L mm^3 and 425 mm^3 and 318 mm^3 and 124 mm^3 and 63 mm^3. In addition, the Tumor volume in assay [2] (Study Day 38, site of re-challenge (L), listed as Example 47) was 0R 0L mm^3 and 0 mm^3 (3×); in assay [2] (Study Day 40, original implantation site (R), Example 478 100 mg/kg, F26 10 mg/kg i.p., listed as Example 47) it was 0R 0L mm^3 and 464 mm^3 and 511 mm^3; in assay [2] (Study Day 40, site of re-challenge (L), listed as Example 47) it was 0R 0L mm^3 and 0 mm^3 (2×).

Values taken from patent publication US11890285B2, “Combination therapies” (Mirati Therapeutics, Inc., priority 2019, dated 2024).
